The numbers were not newly measured in US9182414B2, “Methods for identifying a GLP-1 secretagogue” (Arena Pharmaceuticals, Inc., priority 2005, dated 2015), which cites them from elsewhere.

In the data set the target is T1, BRS-3 (Homo sapiens, UniProt P32247).
T1 sequence (P32247 1-399): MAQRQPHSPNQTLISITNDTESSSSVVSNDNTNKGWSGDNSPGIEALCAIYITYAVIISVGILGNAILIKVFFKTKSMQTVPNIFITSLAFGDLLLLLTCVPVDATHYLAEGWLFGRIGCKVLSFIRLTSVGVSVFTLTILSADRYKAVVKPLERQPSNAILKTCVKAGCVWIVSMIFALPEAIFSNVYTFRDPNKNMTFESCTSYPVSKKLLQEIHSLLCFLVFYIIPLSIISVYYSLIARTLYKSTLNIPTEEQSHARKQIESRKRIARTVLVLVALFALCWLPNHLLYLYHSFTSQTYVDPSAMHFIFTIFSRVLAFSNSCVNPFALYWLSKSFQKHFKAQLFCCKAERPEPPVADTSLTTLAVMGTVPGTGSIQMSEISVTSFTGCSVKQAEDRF
The note with it: BRS-3 over GRP-R and NMB-R; description taken from literature.

Regarding “[D-Tyr^6,βAla^11,Phe^13,Nle^14]Bombesin(6-14) [Compound 34]”, the “selectivity as BRS-3 agonist” value is “non-selective for BRS-3 over GRP-R and NMB-R”.
